Laboratory results as given in ChEMBL document CHEMBL1158556, “Design of pentapeptidic BACE1 inhibitors with carboxylic acid bioisosteres at P1' and P4 positions” (Bioorg Med Chem, 2010).

Experiments:
Beta-secretase 1 [1] = target: T1, Beta-secretase 1 (Homo sapiens, UniProt P56817); experiment: Inhibition of human BACE1 at 2 uM by FRET assay
Beta-secretase 1 [2] = target: T1, Beta-secretase 1; experiment: Inhibition of human BACE1 at 0.2 uM by FRET assay
Beta-secretase 1 [3] = target: T1, Beta-secretase 1; experiment: Inhibition of human BACE1 by FRET assay

T1 sequence (P56817 whole entry): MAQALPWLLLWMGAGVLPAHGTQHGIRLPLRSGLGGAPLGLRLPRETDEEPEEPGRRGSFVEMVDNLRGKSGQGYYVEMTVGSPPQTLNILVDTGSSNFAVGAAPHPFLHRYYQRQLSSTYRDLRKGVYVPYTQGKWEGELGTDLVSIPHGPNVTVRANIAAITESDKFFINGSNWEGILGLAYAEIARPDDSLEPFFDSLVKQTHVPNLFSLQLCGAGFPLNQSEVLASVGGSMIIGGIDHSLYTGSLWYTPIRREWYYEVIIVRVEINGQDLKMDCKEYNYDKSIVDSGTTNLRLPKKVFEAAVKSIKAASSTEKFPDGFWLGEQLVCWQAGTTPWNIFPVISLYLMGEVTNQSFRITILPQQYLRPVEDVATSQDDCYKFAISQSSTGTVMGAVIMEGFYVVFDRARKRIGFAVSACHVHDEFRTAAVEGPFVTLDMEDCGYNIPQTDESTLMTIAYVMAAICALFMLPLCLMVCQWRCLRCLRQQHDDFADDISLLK

| Compound | inhibition (Beta-secretase 1 [1]) [%] | inhibition (Beta-secretase 1 [2]) [%] | IC50 (Beta-secretase 1 [3]) [nM] |
| --- | --- | --- | --- |
| CC(C)C[C@H](NC(=O)[C@@H](NC(=O)[C@@H](N)CNC(=O)c1cc(O)ccc1O)C(C)C)C(=O)N[C@@H](Cc1ccccc1)[C@@H](O)C(=O)Nc1cccc(-c2n[nH]c(=S)o2)c1 | 99 | 89 | – |
| CC(C)C[C@H](NC(=O)[C@@H](NC(=O)[C@@H](N)CNC(=O)c1nn[nH]n1)C(C)C)C(=O)N[C@@H](Cc1ccccc1)[C@@H](O)C(=O)Nc1cccc(-c2nn[nH]n2)c1 | > 99 | – | – |
| CC(C)C[C@H](NC(=O)[C@@H](NC(=O)[C@@H](N)CNC(=O)c1cc(O)ccc1O)C(C)C)C(=O)N[C@@H](Cc1ccccc1)[C@@H](O)C(=O)Nc1cccc(-c2nc(=S)o[nH]2)c1 | – | – | 10.6 |
| CC(C)C[C@H](NC(=O)[C@@H](NC(=O)[C@@H](N)CNC(=O)c1[nH]c(=O)[nH]c(=O)c1F)C(C)C)C(=O)N[C@@H](Cc1ccccc1)[C@@H](O)C(=O)Nc1cccc(-c2noc(=O)[nH]2)c1 | > 99 | 96 | 7.9 |
| CC(C)[C@H](NC(=O)[C@@H](N)CNC(=O)c1c[nH]cn1)C(=O)N[C@@H](CC1CCCCC1)C(=O)N[C@@H](Cc1ccccc1)[C@@H](O)C(=O)Nc1cccc(-c2nn[nH]n2)c1 | 83 | 45 | – |
| CC(C)C[C@H](NC(=O)[C@@H](NC(=O)[C@@H](N)CNC(=O)c1cc(O)ccc1O)C(C)C)C(=O)N[C@@H](Cc1ccccc1)[C@@H](O)C(=O)Nc1cccc(-c2nc(=O)o[nH]2)c1 | – | – | 10 |
| CC(C)C[C@H](NC(=O)[C@@H](NC(=O)[C@@H](N)CNC(=O)c1cc(O)ccc1O)C(C)C)C(=O)N[C@@H](Cc1ccccc1)[C@@H](O)C(=O)Nc1cccc(-c2noc(=S)[nH]2)c1 | > 99 | 93 | – |
| CC(C)C[C@H](NC(=O)[C@@H](NC(=O)[C@@H](N)CNC(=O)c1c[nH]cn1)C(C)C)C(=O)N[C@@H](Cc1ccccc1)[C@@H](O)C(=O)Nc1cccc(-c2nn[nH]n2)c1 | 87 | 50 | – |
| CC(C)C[C@H](NC(=O)[C@@H](NC(=O)[C@@H](N)CNC(=O)c1[nH]c(=O)[nH]c(=O)c1F)C(C)C)C(=O)N[C@@H](Cc1ccccc1)[C@@H](O)C(=O)Nc1cccc(-c2noc(=S)[nH]2)c1 | > 99 | 95 | 10.2 |
| CC(C)C[C@H](NC(=O)[C@@H](NC(=O)[C@@H](N)CNC(=O)c1[nH]c(=O)[nH]c(=O)c1F)C(C)C)C(=O)N[C@@H](Cc1ccccc1)[C@@H](O)C(=O)Nc1cccc(-c2n[nH]c(=S)o2)c1 | > 99 | 95 | – |
| CC(C)C[C@H](NC(=O)[C@@H](NC(=O)[C@@H](N)CNC(=O)c1cc(O)ccc1O)C(C)C)C(=O)N[C@@H](Cc1ccccc1)[C@@H](O)C(=O)Nc1cccc(-c2nsc(=O)[nH]2)c1 | 99 | 92 | – |
| CC(C)[C@H](NC(=O)[C@@H](N)CNC(=O)c1nc[nH]n1)C(=O)N[C@@H](CC1CCCCC1)C(=O)N[C@@H](Cc1ccccc1)[C@@H](O)C(=O)Nc1cccc(-c2nn[nH]n2)c1 | 94 | 69 | – |
| CC(C)C[C@H](NC(=O)[C@@H](NC(=O)[C@@H](N)CNC(=O)c1nc[nH]n1)C(C)C)C(=O)N[C@@H](Cc1ccccc1)[C@@H](O)C(=O)Nc1cccc(-c2nn[nH]n2)c1 | 91 | 58 | – |
| CC(C)C[C@H](NC(=O)[C@@H](NC(=O)[C@@H](N)CNC(=O)c1[nH]c(=O)[nH]c(=O)c1F)C(C)C)C(=O)N[C@@H](Cc1ccccc1)[C@@H](O)C(=O)Nc1cccc(-c2nn[nH]n2)c1 | > 99 | – | – |
| CC(C)C[C@H](NC(=O)[C@@H](NC(=O)[C@@H](N)CNC(=O)c1cc(O)ccc1O)C(C)C)C(=O)N[C@@H](Cc1ccccc1)[C@@H](O)C(=O)Nc1cccc(-c2noc(=O)[nH]2)c1 | > 99 | 92 | – |
| CC(C)[C@H](NC(=O)[C@@H](N)CNC(=O)c1nn[nH]n1)C(=O)N[C@@H](CC1CCCCC1)C(=O)N[C@@H](Cc1ccccc1)[C@@H](O)C(=O)Nc1cccc(-c2nn[nH]n2)c1 | > 99 | – | – |
| CC(C)C[C@H](NC(=O)[C@@H](NC(=O)[C@@H](N)CNC(=O)c1[nH]c(=O)[nH]c(=O)c1F)C(C)C)C(=O)N[C@@H](Cc1ccccc1)[C@@H](O)C(=O)Nc1cccc(-c2nsc(=O)[nH]2)c1 | 99 | 93 | – |
| CC(C)[C@H](NC(=O)[C@@H](N)CNC(=O)c1[nH]c(=O)[nH]c(=O)c1F)C(=O)N[C@@H](CC1CCCCC1)C(=O)N[C@@H](Cc1ccccc1)[C@@H](O)C(=O)Nc1cccc(-c2nn[nH]n2)c1 | > 99 | – | – |
| CC(C)C[C@H](NC(=O)[C@@H](NC(=O)[C@@H](N)CNC(=O)c1cc(O)ccc1O)C(C)C)C(=O)N[C@@H](Cc1ccccc1)[C@@H](O)C(=O)Nc1cccc(-c2n[nH]c(=S)n2C)c1 | 94 | 64 | – |
| CC(C)C[C@H](NC(=O)[C@@H](NC(=O)[C@@H](N)CNC(=O)c1[nH]c(=O)[nH]c(=O)c1F)C(C)C)C(=O)N[C@@H](Cc1ccccc1)[C@@H](O)C(=O)Nc1cccc(-c2n[nH]c(=S)n2C)c1 | 99 | 92 | – |
